# Like-named read-outs stand apart in the source and are kept apart here.
# Assays:
# [1] = Safety assessment in the crossover study (adverse events, laboratory tests); type: in vivo, human; on DIARRHEA (treatment emergent AE): test concentration or dose not given here; on ERYTHEMA, PALMAR (treatment emergent AE): test concentration or dose not given here
# Source text: Seventy-four healthy, non-smoking, male & female subjects, 18-65 years old were enrolled in this study. A total of 68 subjects completed all the requirements of the protocol. There were no enrollment violations. However, nine of the 74 subjects began the study during the third period of the initial group of subjects. All 74 subjects who received at least one dose of study medication were included in the safety analysis.
# This study was a single center, randomized, open-label, 4-way crossover study in healthy subjects. Dosing was administered in the fasted state. Seventy-four (74) subjects were randomized into the study. All seventy-four subjects received one or more doses of study medication and are therefore included in the safety assessment. On Treatment Day 1 of the first treatment period, each subject was randomized to receive one of four possible study treatment sequences. The treatment groups consisted of the four treatments administered sequentially as DCAB, ADBC, BACD or CBDA. These treatments are shown below.
# A signed informed consent was obtained from each subject. For screening purposes, the following procedures were required of each subject and were performed by the clinical site within 30 days prior to the study: a complete physical examination including a medical history, vital signs, clinical laboratory safety tests on blood and urine, medications taken prior to and during the study, and a serum pregnancy test for female subjects.
# During the treatments, temperature, blood pressure, heart rate and respiratory rate were monitored as a safety measure. A physical examination and clinical laboratory tests were repeated at the completion of the study. Subjects were observed and questioned throughout the study for the occurrence of any adverse events.
# [2] = cited from earlier work
# [3] = FDA notice; cited from earlier work
# [4] = 74 subjects, all 4 treatment periods
substance,measurement,setting,value
"N-[2-(dimethylamino)-ethoxy]-3,4,5trimethoxybenzamide hydrochloride [trimethobenzamide hydrochloride]",subjects with decreased red blood cell count at the end of treatment,[1]; 5 percent prior to treatment,11%
same,subjects with low hematocrit at the end of treatment,[1]; 8 percent prior to treatment,34%
same,"adverse events (AEs) experienced, total",[1]; [4],28
same,treatment emergent AEs,[1]; [4],27
same,AEs assessed as related to study treatment,[1]; all mild to moderate,21
same,hematocrit mean change,[1]; end of treatment vs prior,2.3%
same,hemoglobin mean change,[1]; end of treatment vs prior,0.6 g/dL
same,red blood cell count mean change,[1]; end of treatment vs prior,2e+11 L⁻¹
same,overall safety and tolerability,[1]; in vivo,safe and well tolerated
same,serious AEs,[1]; in vivo,no serious AEs
same,subjects with normal hemoglobin prior to treatment who had low hemoglobin at the end of treatment,[1]; no clinical significance,13%
same,dizziness,[1]; number of events,3
same,neurologic complaints,[1]; number of events,15
same,paresthesias,[1]; number of events,3
same,headaches,"[1]; number of events, in a total of 7 subjects",8
same,subjects prematurely withdrawn due to adverse events,[1]; of 6 withdrawn,4
same,samples with hyperkalemia,"[1]; of the 72 samples drawn at the end of the study, due to hemolyzed specimens",55
same,ABDOMINAL PAIN (treatment emergent AE),[1]; sequence A D B C (N = 20),5.0%
same,CONJUNCTIVITIS (treatment emergent AE),[1]; sequence A D B C (N = 20),5.0%
same,DIARRHEA (treatment emergent AE),[1]; sequence A D B C (N = 20),0.0%
same,DIZZINESS (treatment emergent AE),[1]; sequence A D B C (N = 20),15.0%
same,"EDEMA, PALMAR (treatment emergent AE)",[1]; sequence A D B C (N = 20),5.0%
same,"ERYTHEMA, EXTERNAL NOSE (treatment emergent AE)",[1]; sequence A D B C (N = 20),0.0%
same,"ERYTHEMA, PALMAR (treatment emergent AE)",[1]; sequence A D B C (N = 20),5.0%
same,HEADACHE (treatment emergent AE),[1]; sequence A D B C (N = 20),5.0%
same,HYPOTONIA (treatment emergent AE),[1]; sequence A D B C (N = 20),0.0%
same,INJECTION SITE REACTION (treatment emergent AE),[1]; sequence A D B C (N = 20),0.0%
same,LEG CRAMPS (treatment emergent AE),[1]; sequence A D B C (N = 20),0.0%
same,NAUSEA (treatment emergent AE),[1]; sequence A D B C (N = 20),5.0%
same,NAUSEA AND VOMITING (treatment emergent AE),[1]; sequence A D B C (N = 20),5.0%
same,Number of Subject With At Least one AE,[1]; sequence A D B C (N = 20),25.0%
same,Number of Subject With No AE,[1]; sequence A D B C (N = 20),75.0%
same,PARESTHESIA (treatment emergent AE),[1]; sequence A D B C (N = 20),0.0%
same,PHARYNGITIS (treatment emergent AE),[1]; sequence A D B C (N = 20),0.0%
same,RASH (treatment emergent AE),[1]; sequence A D B C (N = 20),0.0%
same,[…] (treatment emergent AE),[1]; sequence A D B C (N = 20),0.0%
same,ABDOMINAL PAIN (treatment emergent AE),[1]; sequence B A C D (N = 18),0.0%
same,CONJUNCTIVITIS (treatment emergent AE),[1]; sequence B A C D (N = 18),0.0%
same,DIARRHEA (treatment emergent AE),[1]; sequence B A C D (N = 18),0.0%
same,DIZZINESS (treatment emergent AE),[1]; sequence B A C D (N = 18),0.0%
same,"EDEMA, PALMAR (treatment emergent AE)",[1]; sequence B A C D (N = 18),0.0%
same,"ERYTHEMA, EXTERNAL NOSE (treatment emergent AE)",[1]; sequence B A C D (N = 18),0.0%
same,"ERYTHEMA, PALMAR (treatment emergent AE)",[1]; sequence B A C D (N = 18),0.0%
same,HEADACHE (treatment emergent AE),[1]; sequence B A C D (N = 18),0.0%
same,HYPOTONIA (treatment emergent AE),[1]; sequence B A C D (N = 18),0.0%
same,INJECTION SITE REACTION (treatment emergent AE),[1]; sequence B A C D (N = 18),5.6%
same,LEG CRAMPS (treatment emergent AE),[1]; sequence B A C D (N = 18),0.0%
same,NAUSEA (treatment emergent AE),[1]; sequence B A C D (N = 18),0.0%
same,NAUSEA AND VOMITING (treatment emergent AE),[1]; sequence B A C D (N = 18),0.0%
same,Number of Subject With At Least one AE,[1]; sequence B A C D (N = 18),22.2%
same,Number of Subject With No AE,[1]; sequence B A C D (N = 18),77.8%
same,PARESTHESIA (treatment emergent AE),[1]; sequence B A C D (N = 18),11.1%
same,PHARYNGITIS (treatment emergent AE),[1]; sequence B A C D (N = 18),0.0%
same,RASH (treatment emergent AE),[1]; sequence B A C D (N = 18),5.6%
same,[…] (treatment emergent AE),[1]; sequence B A C D (N = 18),5.6%
same,ABDOMINAL PAIN (treatment emergent AE),[1]; sequence C B D A (N = 18),0.0%
same,CONJUNCTIVITIS (treatment emergent AE),[1]; sequence C B D A (N = 18),0.0%
same,DIARRHEA (treatment emergent AE),[1]; sequence C B D A (N = 18),5.6%
same,DIZZINESS (treatment emergent AE),[1]; sequence C B D A (N = 18),0.0%
same,"EDEMA, PALMAR (treatment emergent AE)",[1]; sequence C B D A (N = 18),0.0%
same,"ERYTHEMA, EXTERNAL NOSE (treatment emergent AE)",[1]; sequence C B D A (N = 18),5.6%
same,"ERYTHEMA, PALMAR (treatment emergent AE)",[1]; sequence C B D A (N = 18),0.0%
same,HEADACHE (treatment emergent AE),[1]; sequence C B D A (N = 18),16.7%
same,HYPOTONIA (treatment emergent AE),[1]; sequence C B D A (N = 18),5.6%
same,INJECTION SITE REACTION (treatment emergent AE),[1]; sequence C B D A (N = 18),0.0%
same,LEG CRAMPS (treatment emergent AE),[1]; sequence C B D A (N = 18),0.0%
same,NAUSEA (treatment emergent AE),[1]; sequence C B D A (N = 18),0.0%
same,NAUSEA AND VOMITING (treatment emergent AE),[1]; sequence C B D A (N = 18),0.0%
same,Number of Subject With At Least one AE,[1]; sequence C B D A (N = 18),22.2%
same,Number of Subject With No AE,[1]; sequence C B D A (N = 18),77.8%
same,PARESTHESIA (treatment emergent AE),[1]; sequence C B D A (N = 18),0.0%
same,PHARYNGITIS (treatment emergent AE),[1]; sequence C B D A (N = 18),0.0%
same,RASH (treatment emergent AE),[1]; sequence C B D A (N = 18),0.0%
same,[…] (treatment emergent AE),[1]; sequence C B D A (N = 18),0.0%
same,ABDOMINAL PAIN (treatment emergent AE),[1]; sequence D C A B (N = 18),0.0%
same,CONJUNCTIVITIS (treatment emergent AE),[1]; sequence D C A B (N = 18),0.0%
same,DIARRHEA (treatment emergent AE),[1]; sequence D C A B (N = 18),0.0%
same,DIZZINESS (treatment emergent AE),[1]; sequence D C A B (N = 18),0.0%
same,"EDEMA, PALMAR (treatment emergent AE)",[1]; sequence D C A B (N = 18),0.0%
same,"ERYTHEMA, EXTERNAL NOSE (treatment emergent AE)",[1]; sequence D C A B (N = 18),0.0%
same,"ERYTHEMA, PALMAR (treatment emergent AE)",[1]; sequence D C A B (N = 18),0.0%
same,HEADACHE (treatment emergent AE),[1]; sequence D C A B (N = 18),16.7%
same,HYPOTONIA (treatment emergent AE),[1]; sequence D C A B (N = 18),0.0%
same,INJECTION SITE REACTION (treatment emergent AE),[1]; sequence D C A B (N = 18),0.0%
same,LEG CRAMPS (treatment emergent AE),[1]; sequence D C A B (N = 18),5.6%
same,NAUSEA (treatment emergent AE),[1]; sequence D C A B (N = 18),0.0%
same,NAUSEA AND VOMITING (treatment emergent AE),[1]; sequence D C A B (N = 18),0.0%
same,Number of Subject With At Least one AE,[1]; sequence D C A B (N = 18),27.8%
same,Number of Subject With No AE,[1]; sequence D C A B (N = 18),72.2%
same,PARESTHESIA (treatment emergent AE),[1]; sequence D C A B (N = 18),5.6%
same,PHARYNGITIS (treatment emergent AE),[1]; sequence D C A B (N = 18),0.0%
same,RASH (treatment emergent AE),[1]; sequence D C A B (N = 18),0.0%
same,[…] (treatment emergent AE),[1]; sequence D C A B (N = 18),0.0%
same,severe AEs,"[1]; severe pharyngitis, judged unrelated to study treatment",1
same,DURATION,[2]; IM,2 to 3 h
same,ONSET,[2]; IM,15 to 35 min
same,DURATION,[2]; PO,3 to 4 h
same,ONSET,[2]; PO,10 to 40 min
same,DURATION,[2]; Rect,3 to 4 h
same,ONSET,[2]; Rect,10 to 40 min
same,plasma levels of an oral dose of 400 milligrams vs a 200-milligram intramuscular dose,[3],APP[…]
same,"systemic bioavailability of orally administered drug, of the bioavailability of intramuscularly administered drug",[3],about 60%

# — patent publication US20040034102A1, “Oral pediatric trimethobenzamide formulations and methods” (King Pharmaceuticals, Inc., priority 2002, published 2004)
